Test results as given in patent US11174242B2, “Heteroaryl compounds and their use” (Minoryx Therapeutics S.L., priority 2016, dated 2021).
Residue numbers refer to the chain shown, from its start.

Key:
[1] = target: T1, β-glucocerebrosidase, p.L444P mutation (GM08760A fibroblasts) (Homo sapiens, UniProt P04062, L483P); assay: Enhancement of β-glucocerebrosidase activity measured in Gaucher disease fibroblasts (L444P); type: cell-based; conditions: increase in enzyme activity vs non-treated cells, GBA fibroblasts bearing L444P
T1 construct: host or cells: human Gaucher patient fibroblasts GM08760A, homozygous L444P
T1 sequence (P04062 40-536 L483P): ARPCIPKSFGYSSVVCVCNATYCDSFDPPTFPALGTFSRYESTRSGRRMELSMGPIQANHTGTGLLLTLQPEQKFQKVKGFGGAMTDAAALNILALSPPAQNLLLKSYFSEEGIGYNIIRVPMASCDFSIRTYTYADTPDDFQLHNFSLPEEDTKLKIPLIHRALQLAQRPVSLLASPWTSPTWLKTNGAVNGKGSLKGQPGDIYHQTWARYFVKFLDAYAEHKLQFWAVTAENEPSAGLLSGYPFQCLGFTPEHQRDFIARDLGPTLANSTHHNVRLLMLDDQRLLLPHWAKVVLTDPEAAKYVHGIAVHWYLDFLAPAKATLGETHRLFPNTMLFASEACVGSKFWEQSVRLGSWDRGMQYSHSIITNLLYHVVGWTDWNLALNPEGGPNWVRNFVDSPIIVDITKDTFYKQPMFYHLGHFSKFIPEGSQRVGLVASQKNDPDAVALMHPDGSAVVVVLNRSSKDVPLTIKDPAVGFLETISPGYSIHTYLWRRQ
How it was run: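 GM08760A fibroblasts (homozygous p.L444P), 5×10^3 cells/well, treated with compound for 4 days at 37° C. Intact cells then incubated with 4-MU-β-D-glucopyranoside in 0.1 M acetate buffer pH=4 for 1 hour at 37° C.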

[2] = target: T2, β-glucocerebrosidase Wild Type (WT) (Homo sapiens, UniProt P04062); assay: β-glucocerebrosidase activity enhancement, Wild Type (WT); type: cell-based; conditions: increase in enzyme activity vs non-treated cells; for Activity WT: commercially available compounds
T2 construct: endogenous in cells
T2 sequence (P04062 40-536): T1 sequence (P04062 40-536 L483P) with P444L
Procedure: Fibroblasts were seeded at 5×10^3 cells per well in 96-well cell culture plates (Corning, N.Y., USA) in Dulbecco's Modified Eagle's Media (DMEM) supplemented with 10% of fetal bovine serum (FBS), 1% penicillin/streptomycin (P/S) (Thermo Fisher Scientific, Waltham, Mass., USA) and grown at 37° C., 5% CO2 overnight for cell attachment. Subsequently, cells were incubated in the absence or presence of the compounds at the desired concentration for 4 days. After incubation, cells were washed twice with phosphate-buffered saline (PBS) and enzyme activity assay was performed.
β-glucocerebrosidase activity in intact cultured cells was measured by using 4-methylumbelliferyl-β-D-glucopyranoside substrate (Apollo Scientific, UK). Briefly, cells were incubated with 4-MU-β-D-glucopyranoside in 0.1 M acetate buffer pH=4 at 37° C. for 1 hour. […] The liberated 4-MU was measured on a GloMax Discover plate reader (Promega, Madison, Wis., USA) with and excitation at 340 nm and emission at 460 nm. Enzyme activities were expressed in treated cells as X-fold increase in comparison with non-treated cells (X=1 represents no enhancement).
The following compounds listed in Table 2 were purchased (from Enamine, Princeton, Asinex, Vistas-M, and OSSK_541352) and tested in the assay as described above.

[3] = concentrations between 6 and 50 μM, 4 days incubation
[4] = commercially available compounds, 6-50 μM, 4 days

Row | SMILES | Activity L444P [1, 3] | Activity Wild Type (WT) [2] | Activity L444P [1, 4] | Activity WT [2]
1 | COc1ccc(CN(C)Cc2cc(Nc3ccc(C)cc3)nc(N)n2)cc1 [Example 33, 6-(((4-Methoxybenzyl)(methyl)amino)methyl)-N^4-p-tolylpyrimidine-2,4-diamine] | B (Increase in comparison with non-treated of >1.7-2.0 fold is shown as B) | B (Increase in comparison with non-treated of >1.7-2.0 fold is shown as B) | – | –
2 | COc1cccc(Nc2cc(CN(C)Cc3cccc(C#N)c3)nc(N)n2)c1 [Example 37, 3-((((2-Amino-6-(3-methoxyphenylamino)pyrimidin-4-yl)methyl)(methyl)amino)methyl) benzonitrile] | C (Increase in comparison with non-treated of 1.2-1.7 fold is shown as C) | B (Increase in comparison with non-treated of >1.7-2.0 fold is shown as B) | – | –
3 | COc1ccc(OC)c(Nc2cc(CN(C)Cc3ccccc3)nc(N)n2)c1 [Example 41, 6-((Benzyl(methyl)amino)methyl)-N^4-(2,5-dimethoxyphenyl)pyrimidine-2,4-diamine] | B (Increase in comparison with non-treated of >1.7-2.0 fold is shown as B) | C (Increase in comparison with non-treated of 1.2-1.7 fold is shown as C) | – | –
4 | COc1cccc(Nc2cc(CN(C)Cc3ccccc3)nc(N)n2)c1OC [Example 42, 6-((Benzyl(methyl)amino)methyl)-N^4-(2,3-dimethoxyphenyl)pyrimidine-2,4-diamine] | C (Increase in comparison with non-treated of 1.2-1.7 fold is shown as C) | B (Increase in comparison with non-treated of >1.7-2.0 fold is shown as B) | – | –
5 | CN(Cc1ccccc1)Cc1cc(Nc2cccc3c2OCO3)nc(N)n1 [Example 43, N^4-(Benzo[d][1,3]dioxol-4-yl)-6-((benzyl(methyl)amino)methyl)pyrimidine-2,4-diamine] | C (Increase in comparison with non-treated of 1.2-1.7 fold is shown as C) | C (Increase in comparison with non-treated of 1.2-1.7 fold is shown as C) | – | –
6 | COc1cccc(Nc2cc(CN(C)Cc3ccc(F)cc3)nc(N)n2)c1 [Example 45, 6-(((4-Fluorobenzyl)(methyl)amino)methyl)-N^4-(3-methoxyphenyl)pyrimidine-2,4-diamine] | C (Increase in comparison with non-treated of 1.2-1.7 fold is shown as C) | C (Increase in comparison with non-treated of 1.2-1.7 fold is shown as C) | – | –
7 | COc1ccc(C)cc1Nc1cc(CN(C)Cc2ccccc2)nc(N)n1 [Example 46, 6-((Benzyl(methyl)amino)methyl)-N^4-(2-methoxy-5-methylphenyl)pyrimidine-2,4-diamine] | B (Increase in comparison with non-treated of >1.7-2.0 fold is shown as B) | B (Increase in comparison with non-treated of >1.7-2.0 fold is shown as B) | – | –
8 | COc1ccc(CN(C)Cc2cc(Nc3cccc(C)c3)nc(N)n2)cc1 [Example 47, 6-(((4-Methoxybenzyl)(methyl)amino)methyl)-N^4-m-tolylpyrimidine-2,4-diamine] | C (Increase in comparison with non-treated of 1.2-1.7 fold is shown as C) | C (Increase in comparison with non-treated of 1.2-1.7 fold is shown as C) | – | –
9 | CCN(Cc1ccccc1)Cc1cc(Nc2cccc(OC)c2)nc(N)n1 [Example 48, 6-((Benzyl(ethyl)amino)methyl)-N^4-(3-methoxyphenyl)pyrimidine-2,4-diamine] | C (Increase in comparison with non-treated of 1.2-1.7 fold is shown as C) | B (Increase in comparison with non-treated of >1.7-2.0 fold is shown as B) | – | –
10 | COc1cccc(Nc2cc(CN3CCCC3c3ccccc3)nc(N)n2)c1 (centres unmarked) [Example 50] | C (Increase in comparison with non-treated of 1.2-1.7 fold is shown as C) | C (Increase in comparison with non-treated of 1.2-1.7 fold is shown as C) | – | –
11 | Cc1ccc(Nc2cc(CN(C)Cc3ccccc3)nc(N)n2)cc1 [Example 52, 6-((Benzyl(methyl)amino)methyl)-N^4-p-tolylpyrimidine-2,4-diamine] | C (Increase in comparison with non-treated of 1.2-1.7 fold is shown as C) | C (Increase in comparison with non-treated of 1.2-1.7 fold is shown as C) | – | –
12 | Cc1cccc(Nc2cc(N)nc(CN(C)Cc3ccccc3)n2)c1 [Example 64, 2-((Benzyl(methyl)amino)methyl)-N^4-m-tolylpyrimidine-4,6-diamine] | B (Increase in comparison with non-treated of >1.7-2.0 fold is shown as B) | B (Increase in comparison with non-treated of >1.7-2.0 fold is shown as B) | – | –
13 | COc1cccc(Nc2cc(N)nc(CN(C)Cc3ccccc3)n2)c1 [Example 65, 2-((Benzyl(methyl)amino)methyl)-N^4-(3-methoxyphenyl)pyrimidine-4,6-diamine] | B (Increase in comparison with non-treated of >1.7-2.0 fold is shown as B) | A (Increase in comparison with non-treated of >2.0 fold is shown as A) | – | –
14 | COc1ccccc1Nc1nc(N)cc(CN(C)Cc2ccccc2)n1 [Example 67, 6-((Benzyl(methyl)amino)methyl)-N^2-(2-methoxyphenyl) pyrimidine-2,4-diamine] | A (Increase in comparison with non-treated of >2.0 fold is shown as A) | B (Increase in comparison with non-treated of >1.7-2.0 fold is shown as B) | – | –
15 | Cc1cccc(Nc2nc(N)cc(CN(C)Cc3ccccc3)n2)c1 [Example 68, 6-((Benzyl(methyl)amino)methyl)-N^2-m-tolylpyrimidine-2,4-diamine] | B (Increase in comparison with non-treated of >1.7-2.0 fold is shown as B) | A (Increase in comparison with non-treated of >2.0 fold is shown as A) | – | –
16 | COc1cccc(Nc2nc(N)cc(CN(C)Cc3ccccc3)n2)c1 [Example 69, 6-((Benzyl(methyl)amino)methyl)-N^2-(3-methoxyphenyl)pyrimidine-2,4-diamine] | A (Increase in comparison with non-treated of >2.0 fold is shown as A) | C (Increase in comparison with non-treated of 1.2-1.7 fold is shown as C) | – | –
17 | COc1ccc(Nc2nc(N)cc(CN(C)Cc3ccccc3)n2)cc1 [Example 70] | A (Increase in comparison with non-treated of >2.0 fold is shown as A) | B (Increase in comparison with non-treated of >1.7-2.0 fold is shown as B) | – | –
18 | Nc1nc(CN2Cc3ccccc3C2)nc(Nc2ccc(F)cc2)n1 [N2-(4-fluorophenyl)-6-(isoindolin-2-ylmethyl)-1,3,5-triazine-2,4-diamine] | – | – | B (Increase in comparison with non-treated of >1.7-2.0 fold is shown as B) | C (Increase in comparison with non-treated of 1.2-1.7 fold is shown as C)
19 | COc1cccc(N2CCN(Cc3nc(N)nc(NCc4ccccc4)n3)CC2)c1 [N2-benzyl-6-((4-(3-methoxyphenyl)piperazin-1-yl)methyl)-1,3,5-triazine-2,4-diamine] | – | – | C (Increase in comparison with non-treated of 1.2-1.7 fold is shown as C) | C (Increase in comparison with non-treated of 1.2-1.7 fold is shown as C)
